Measured values as given in patent US5665777A, “Biphenyl hydroxamate inhibitors of matrix metalloproteinases” (Abbott Laboratories, priority 1995, dated 1997).
pIC50: −log10 of the molar value.

How the values were obtained:
TNFα secretion = assay: HL-60 TNFα Release Assay (inhibition of TNFα secretion, ELISA); assay type: cell-based; settings: Homo sapiens, HL-60 cells, 40 nM phorbol myristate acetate, 20 hr at 37° C.
Protocol: The inhibition of TNFα secretion by the compounds of this invention was determined using a HL-60 TNFα Release Assay. HL-60 cells were cultured in RPMI 1640 with 10% fetal bovine serum and penicillin/streptomycin. HL-60 cells (150,000 cells/well) were placed in 96 well culture plates in RPMI 1640 with 10% fetal bovine serum and pen/strep containing 40 nM phorbol myristate acetate and test compound in DMSO (final DMSO 0.1%). HL-60 cells were then cultured for 20 hr at 37° C. (95% humidity) after which cell supernatants were collected for analysis of TNFα by ELISA.

stromelysin = molecular target: T1, stromelysin (Homo sapiens, UniProt P08254); assay: Determination of stromelysin inhibition (cleavage of thiopeptide ester substrate, DTNB readout); assay type: biochemical; settings: for pIC50: recombinant truncated human stromelysin, pH 6.5, 30 min, ambient temperature, read-out: IC50, inhibitory potency against stromelysin
T1 construct: made in house; host or cells: E. coli
T1 sequence (P08254 100-273 limits assumed): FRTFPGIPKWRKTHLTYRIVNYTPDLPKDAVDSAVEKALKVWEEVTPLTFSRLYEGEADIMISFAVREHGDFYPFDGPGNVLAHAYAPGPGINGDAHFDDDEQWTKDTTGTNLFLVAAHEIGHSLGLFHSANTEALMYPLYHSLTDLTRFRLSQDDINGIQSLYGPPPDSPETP
Protocol: The inhibition of stromelysin by the compounds of this invention was determined as follows: Recombinant truncated stromelysin (human sequence) produced in E. coli was prepared by expression and purification of the protein as described by Ye et al., Biochemistry, 1992, 31, 11231-11235. The enzyme was assayed by its cleavage of the thiopeptide ester substrate Ac-Pro-Leu-Gly-[2-mercapto-4-methyl-pentanoyl]-Leu-Gly-OEt described by Weingarten and Feder, Anal Biochem., 1985, 147, 437-440 (1985), as a substrate of vertebrate collagenase. The reported conditions were modified to allow assays to be carried out in a microtiter plate. Upon hydrolysis of the thioester bond, the released thiol group reacts rapidly with 5,5'-dithio-bis(2-nitrobenzoic acid) (DTNB), producing a yellow color which is measured by a microtiter plate reader set al 405 nm. The rates of cleavage of the substrate by stromelysin in the presence or absence of inhibitors are measured in a 30 min assay at ambient temperature. Solutions of the compounds in DMSO are prepared, and these are diluted at various concentrations into the assay buffer (50 mM MES/NaOH pH 6.5 with 10 mM CaCl2 and 0.2% Pluronic F-68), which is also used for dilution of the enzyme and substrate. The potency of the compounds [IC50 ] are calculated from the inhibition/inhibitor concentration data.

Compound | inhibition at 16 µM (TNFα secretion) [%] | pIC50 (stromelysin) | further results
CCCc1ccc(-c2ccc(OCCCC(=O)NO)cc2)cc1 [Example 8, 4-[4-(4-propylphenyl)phenoxy]butanohydroxamic acid] | 35 | 5.00 | –
O=C(CCCCOc1cccc(-c2ccc(F)cc2)c1)NO [Example 12, 5-[3-(4-fluorophenyl)phenoxy]pentanohydroxamic acid] | 62 | – | inhibition at 100 µM (stromelysin): 20%
O=C(CCCCOc1ccc(-c2ccccc2)cc1)NO [Example 19, 5-[4-phenylphenoxy]pentanohydroxamic acid] | 61 | – | –
O=C(CCOc1ccc(-c2ccc(F)cc2)cc1)NO [Example 27, 3-[4-(4-fluorophenyl)phenoxy]propanohydroxamic acid] | – | 6.72 | –
O=C(CCc1ccc(-c2ccccc2)cc1)NO [Example 37, 3-(4-biphenyl)propanohydroxamic acid] | – | 4.52 | –
CC(C)(C)OC(=O)CC(CCOc1ccc(-c2ccc(C#N)cc2)cc1)C(=O)NO (stereo not shown) [Example 43, 2-tert-butyloxycarbonylmethyl-4-[4-(4-cyanophenyl)phenoxy]butanohydroxamic acid] | – | 6.31 | –
O=C(CCCCOc1cccc(-c2ccccc2)c1)NO [Example 18, 5-[3-phenylphenoxy]pentanohydroxamic acid] | 62 | 4.13 | –
O=C(CCCCCCOc1ccc(-c2ccccc2)cc1)NO [Example 10, 7-(4-phenylphenoxy)heptanohydroxamic acid] | – | – | inhibition at 100 µM (stromelysin): 45%
O=C(CCNc1ccc(-c2ccccc2)cc1)NO [Example 32, 3-(4-biphenylamino)propanohydroxamic acid] | – | 5.34 | –
N#Cc1ccc(-c2cccc(OCCCCC(=O)NO)c2)cc1 [Example 14, 5-[3-(4-cyanophenyl)phenoxy]pentanohydroxamic acid] | 64 | 3.91 | –
O=C(CCCCOc1ccc(-c2ccc(F)cc2)cc1)NO [Example 39, 5-[4-(4-fluorophenyl)phenoxy]pentanohydroxamic acid] | – | – | inhibition at 100 µM (stromelysin): 47%
CNC(=O)C(CCOc1ccc(-c2ccc(C#N)cc2)cc1)CC(=O)NO (stereo not shown) [Example 29, 3-(N-methylcarboxamido)-5-[4-(4-cyanophenyl)phenoxy]pentanohydroxamic acid] | – | 6.46 | –
O=C(NO)C(O)COc1ccc(-c2ccccc2)cc1 (stereo not shown) [Example 45, 2-hydroxy-3-[(4-phenyl)phenoxy]propanohydroxamic acid] | – | 5.64 | –
N#Cc1cccc(-c2cccc(OCCCCC(=O)NO)c2)c1 [Example 13, 5-[3-(3-cyanophenyl)phenoxy]pentanohydroxamic acid] | 67 | – | inhibition at 100 µM (stromelysin): 24%
C[C@@H](COc1ccc(-c2ccccc2)cc1)C(=O)NO [Example 28, (S)2-methyl-3-(4-phenylphenoxy)propanohydroxamic acid] | – | 6.82 | –
N#Cc1cccc(-c2cccc(OCCCC(=O)NO)c2)c1 [Example 17, 4-[3-(3-cyanophenyl)phenoxy]butanohydroxamic acid] | – | 5.60 | –
O=C(CCOc1cccc(-c2ccccc2)c1)NO [Example 24, 3-(3-phenylphenoxy)propanohydroxamic acid] | 59 | – | inhibition at 10 µM (stromelysin; @ 10 μM): 14%
O=C(CCCOc1cccc(-c2ccccc2)c1)NO [Example 2, 4-(3-phenylphenoxy)butanohydroxamic acid] | – | – | inhibition at 100 µM (stromelysin): 5%
COc1ccc(-c2ccc(OCCC(=O)NO)cc2)cc1 [Example 26, 3-[4-(4-methoxyphenyl)phenoxy]propanohydroxamic acid] | – | 7.10 | –
O=C(CCCOc1cccc(-c2ccc(F)cc2)c1)NO [Example 15, 4-[3-(4-fluorophenyl)phenoxy]butanohydroxamic acid] | 63 | 4.13 | –
N#Cc1cccc(-c2ccc(OCCCC(=O)NO)cc2)c1 [Example 4, 4-[4-(3-cyanophenyl)phenoxy]butanohydroxamic acid] | 64 | 4.34 | –

Compound | inhibition at 16 µM (TNFα secretion) [%] | pIC50 (stromelysin) | further results
N#Cc1ccc(-c2ccc(OCCCCC(=O)NO)cc2)cc1 [Example 20, 5-[4-(4-cyanophenyl)phenoxy]pentanohydroxamic acid] | 50 | – | –
N#Cc1ccc(-c2cccc(OCCCC(=O)NO)c2)cc1 [Example 16, 4-[3-(4-cyanophenyl)phenoxy]butanohydroxamic acid] | – | 4.62 | –
O=C(CCCOc1cc(-c2ccccc2)ccc1O)NO [Example 41, 4-(2-hydroxy-5-phenylphenoxy)butanohydroxamic acid] | – | – | inhibition at 100 µM (stromelysin): 36%
N#CCc1cccc(-c2ccc(OCCCC(=O)NO)cc2)c1 [Example 6, 4-[4-(3-cyanomethylphenyl)phenoxy]butanohydroxamic acid] | 40 | 5.72 | –
N#Cc1ccc(-c2ccc(CCCC(=O)NO)cc2)cc1 [Example 35, 4-[4-(4-cyanophenyl)phenyl]butanohydroxamic acid] | – | 5.08 | –
N#CCc1ccc(-c2ccc(OCCCC(=O)NO)cc2)cc1 [Example 5, 4-[4-(4-cyanomethylphenyl)phenoxy]butanohydroxamic acid] | 82 | 4.68 | –
O=C(CCCOc1ccc(-c2ccc(Cl)cc2)cc1)NO [Example 7, 4-[4-(4-chlorophenyl)phenoxy]butanohydroxamic acid] | 35 | – | inhibition at 100 µM (stromelysin): 47%
N#CCc1cccc(-c2ccc(OCCC(=O)NO)cc2)c1 [Example 42, 3-[4-(3-cyanomethylphenyl)phenoxy]propanohydroxamic acid] | – | 7.82 | –
O=C(CCSc1ccc(-c2ccccc2)cc1)NO [Example 30, 3-(4-biphenylthio)propanohydroxamic acid] | – | 5.68 | –
N#Cc1ccc(-c2ccc(OCCCCCCC(=O)NO)cc2)cc1 [Example 11, 7-[4-(4-cyanophenyl)phenoxy]heptanohydroxamic acid] | 77 | 5.64 | –
O=C(CCCCCOc1ccc(-c2ccccc2)cc1)NO [Example 21, 6-[4-phenylphenoxy]hexanohydroxamic acid] | – | 4.11 | –
COc1ccc(-c2ccc(OCCCC(=O)NO)cc2)cc1 [Example 9, 4-[4-(4-methoxyphenyl)phenoxy]butanohydroxamic acid] | – | 4.47 | –
O=C(CCCOc1ccc(-c2ccccc2)cc1)NO [Example 1, 4-(4-phenylphenoxy)butanohydroxamic acid] | 27 | – | –
O=C(CSc1ccc(-c2ccccc2)cc1)NO [Example 31, 2-(4-biphenylthio)ethanohydroxamic acid] | – | 6.06 | –
O=C(CCCCc1ccc(-c2ccccc2)cc1)NO [Example 38, 5-(4-biphenyl)pentanohydroxamic acid] | 65 | 6.00 | –
O=C(CCCc1ccc(-c2ccccc2)cc1)NO [Example 34, 4-(4-biphenyl)butanohydroxamic acid] | 52 | 4.24 | –
N#Cc1ccc(-c2ccc(OCCCC(=O)NO)cc2)cc1 [Example 3, 4-[4-(4-cyanophenyl)phenoxy]butanohydroxamic acid] | – | 5.46 | –
O=C(Cc1ccc(-c2ccccc2)cc1)NO [Example 33, 2-(4-biphenyl)ethanohydroxamic acid] | – | – | inhibition at 100 µM (stromelysin): 14%
O=C(CCCOc1ccc(-c2ccccc2)cc1O)NO [Example 40, 4-(2-hydroxy-4-phenylphenoxy)butanohydroxamic acid] | – | – | inhibition at 100 µM (stromelysin): 39%
N#CCc1ccc(-c2ccc(OCCC(=O)NO)cc2)cc1 [Example 44, 3-[4-(4-cyanomethylphenyl)phenoxy]propanohydroxamic acid] | – | 6.72 | –
